Key:
[1] = target: T1, ATPase family AAA domain-containing protein 2 (Homo sapiens, UniProt Q6PL18); experiment: Displacement of Alexa Fluor 488-labeled ligand from FLAG-6His-Tev-fused ATAD2 (981 to 1121 residue) (unknown origin) measured after 30 mins by TR-FRET assay
T1 sequence (Q6PL18 whole entry): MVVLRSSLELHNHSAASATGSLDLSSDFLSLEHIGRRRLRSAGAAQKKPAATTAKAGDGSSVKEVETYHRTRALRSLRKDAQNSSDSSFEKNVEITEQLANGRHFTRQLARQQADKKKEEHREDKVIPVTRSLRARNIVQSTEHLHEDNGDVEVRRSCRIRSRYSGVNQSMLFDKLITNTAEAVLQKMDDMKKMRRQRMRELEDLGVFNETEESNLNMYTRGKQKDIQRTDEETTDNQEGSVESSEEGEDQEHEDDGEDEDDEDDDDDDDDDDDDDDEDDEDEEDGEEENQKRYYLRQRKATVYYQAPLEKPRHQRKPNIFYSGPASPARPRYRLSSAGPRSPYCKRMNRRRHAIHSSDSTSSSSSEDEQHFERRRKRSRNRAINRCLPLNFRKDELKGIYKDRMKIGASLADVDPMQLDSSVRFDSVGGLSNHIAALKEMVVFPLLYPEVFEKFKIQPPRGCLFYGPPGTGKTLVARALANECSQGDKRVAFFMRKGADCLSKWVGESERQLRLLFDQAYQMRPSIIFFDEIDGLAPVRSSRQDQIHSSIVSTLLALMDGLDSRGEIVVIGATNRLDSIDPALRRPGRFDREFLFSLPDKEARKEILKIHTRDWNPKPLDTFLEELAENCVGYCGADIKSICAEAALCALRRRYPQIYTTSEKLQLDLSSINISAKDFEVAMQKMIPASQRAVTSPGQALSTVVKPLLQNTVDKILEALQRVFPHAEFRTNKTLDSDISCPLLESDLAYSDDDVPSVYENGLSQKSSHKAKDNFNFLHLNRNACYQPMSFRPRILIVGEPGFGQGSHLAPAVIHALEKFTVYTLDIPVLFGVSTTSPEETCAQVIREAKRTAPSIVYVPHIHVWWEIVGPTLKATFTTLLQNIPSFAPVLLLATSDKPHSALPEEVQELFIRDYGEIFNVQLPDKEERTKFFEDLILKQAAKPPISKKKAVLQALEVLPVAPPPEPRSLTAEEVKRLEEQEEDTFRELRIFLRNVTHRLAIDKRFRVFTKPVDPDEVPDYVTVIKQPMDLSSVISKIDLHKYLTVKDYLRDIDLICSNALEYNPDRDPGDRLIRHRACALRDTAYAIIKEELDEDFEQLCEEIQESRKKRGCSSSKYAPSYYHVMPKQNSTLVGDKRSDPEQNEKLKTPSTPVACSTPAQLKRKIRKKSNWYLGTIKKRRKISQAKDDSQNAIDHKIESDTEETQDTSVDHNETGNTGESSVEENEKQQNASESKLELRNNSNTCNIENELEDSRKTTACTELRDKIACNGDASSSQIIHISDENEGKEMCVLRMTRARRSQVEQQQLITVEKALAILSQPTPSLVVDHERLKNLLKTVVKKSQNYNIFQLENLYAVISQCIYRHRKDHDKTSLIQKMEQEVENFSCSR

[2] = target: Transcription initiation factor TFIID subunit 1-like (Homo sapiens, UniProt Q8IZX4); experiment: Binding affinity to human partial length TAF1L bromodomain 2 (Q1523 to D1654 residues) expressed in bacterial expression system by BROMOscan assay
Sequence of Transcription initiation factor TFIID subunit 1-like (Q8IZX4 whole entry, the tested form may be a part): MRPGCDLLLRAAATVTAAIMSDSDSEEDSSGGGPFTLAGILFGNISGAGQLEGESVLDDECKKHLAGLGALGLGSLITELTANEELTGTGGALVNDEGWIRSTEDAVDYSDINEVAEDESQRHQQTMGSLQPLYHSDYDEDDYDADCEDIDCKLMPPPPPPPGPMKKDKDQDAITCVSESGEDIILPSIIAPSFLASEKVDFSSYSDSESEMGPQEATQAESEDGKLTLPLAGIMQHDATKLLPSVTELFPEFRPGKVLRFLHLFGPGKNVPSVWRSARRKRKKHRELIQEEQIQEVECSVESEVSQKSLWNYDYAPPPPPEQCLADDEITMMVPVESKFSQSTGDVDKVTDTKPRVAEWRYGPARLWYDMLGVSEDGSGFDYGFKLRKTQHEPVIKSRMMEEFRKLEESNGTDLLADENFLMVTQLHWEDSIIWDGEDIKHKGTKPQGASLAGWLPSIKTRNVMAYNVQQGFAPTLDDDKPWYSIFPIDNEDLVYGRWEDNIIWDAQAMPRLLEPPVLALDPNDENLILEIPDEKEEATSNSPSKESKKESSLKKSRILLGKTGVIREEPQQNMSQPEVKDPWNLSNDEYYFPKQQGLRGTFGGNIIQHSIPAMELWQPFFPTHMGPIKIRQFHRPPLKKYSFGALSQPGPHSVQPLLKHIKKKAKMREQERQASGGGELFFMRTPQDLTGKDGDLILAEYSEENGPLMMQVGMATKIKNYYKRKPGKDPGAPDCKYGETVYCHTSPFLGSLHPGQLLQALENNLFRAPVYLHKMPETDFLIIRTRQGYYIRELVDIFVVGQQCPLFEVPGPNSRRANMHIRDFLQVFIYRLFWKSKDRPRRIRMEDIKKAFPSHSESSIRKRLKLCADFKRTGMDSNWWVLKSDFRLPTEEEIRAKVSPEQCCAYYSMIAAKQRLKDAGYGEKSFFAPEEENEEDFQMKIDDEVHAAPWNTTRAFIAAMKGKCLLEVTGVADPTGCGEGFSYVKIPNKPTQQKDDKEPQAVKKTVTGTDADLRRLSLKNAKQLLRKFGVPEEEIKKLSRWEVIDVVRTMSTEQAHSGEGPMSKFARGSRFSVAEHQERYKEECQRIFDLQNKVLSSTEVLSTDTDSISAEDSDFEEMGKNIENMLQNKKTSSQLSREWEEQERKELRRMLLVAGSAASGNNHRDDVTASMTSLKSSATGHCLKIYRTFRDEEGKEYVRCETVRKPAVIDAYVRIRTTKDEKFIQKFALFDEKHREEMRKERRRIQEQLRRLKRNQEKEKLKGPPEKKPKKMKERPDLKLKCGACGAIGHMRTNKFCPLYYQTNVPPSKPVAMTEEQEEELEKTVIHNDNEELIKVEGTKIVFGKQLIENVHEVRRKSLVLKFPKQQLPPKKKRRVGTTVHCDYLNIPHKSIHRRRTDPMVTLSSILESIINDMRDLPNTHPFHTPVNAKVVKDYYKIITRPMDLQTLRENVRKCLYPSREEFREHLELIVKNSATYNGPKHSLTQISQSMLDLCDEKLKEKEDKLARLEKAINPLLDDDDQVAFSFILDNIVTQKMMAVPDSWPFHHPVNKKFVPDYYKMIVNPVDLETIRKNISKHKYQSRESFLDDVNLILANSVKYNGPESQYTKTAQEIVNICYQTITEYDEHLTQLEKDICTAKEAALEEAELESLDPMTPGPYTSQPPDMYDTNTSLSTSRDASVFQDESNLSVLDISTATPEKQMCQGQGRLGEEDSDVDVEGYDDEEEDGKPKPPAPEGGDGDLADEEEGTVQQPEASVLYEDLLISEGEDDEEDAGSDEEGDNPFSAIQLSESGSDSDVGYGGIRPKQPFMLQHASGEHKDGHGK

C[C@H]1CCN(S(=O)(=O)c2cc(NC(=O)CN3C(=O)N[C@@](C)(C4CC4)C3=O)ccc2Br)C1
IC50 [1]: 63.1 nM
Kd [2]: 25.1 nM

From ChEMBL document CHEMBL4354881, “Optimization of Potent ATAD2 and CECR2 Bromodomain Inhibitors with an Atypical Binding Mode” (J Med Chem, 2020)
